Converted amounts (≈) assume the structure as drawn. Like-named read-outs stand apart in the source and are kept apart here.
Assays:
TTR = settings: cited from earlier work
[1] = safety evaluation in the Phase I study; format: in vivo, human; settings: single oral doses, healthy subjects
Description: Treatment-emergent adverse events (TEAEs), serious adverse events (SAEs), vital signs, ECG measurements (triplicate), physical examination, standard laboratory evaluations.

[2] = solubility assessment of micronized tolcapone in buffers (HPLC assay and visual observation); format: physicochemical; settings: for solubility at 1 h / solubility at 2 h: buffer, thermodynamic from solid
Experimental: Two aliquots of each sample were taken at 1 and 2 hour time points. One aliquot was used for Assay and Related Substances analysis by reverse phase HPLC and the other aliquot was used to obtain microscopic images using 5.5× magnification, polarised and non-polarised light. In addition, representative photograph of each n=1 sample at 1 hour time point were taken for information. pH of each sample was measured at 2 hour time point.

## Cc1ccc(C(=O)c2cc(O)c(O)c([N+](=O)[O-])c2)cc1 [tolcapone]
TTR; 100 mg three times daily 14 days then 200 mg three times daily 14 days, oral, hATTR-leptomeningeal patients, plasma
  overall mean increase in plasma TTR tetramer concentration: 55%
TTR; same regimen, CSF, measured under semi-denaturing conditions
  mean decrease of monomeric TTR concentration in CSF: 48%
[1]
  safety and tolerability: safe and well tolerated
[2]; acidic conditions
  solubility (in words): poorly soluble
[2]; at about pH 6.8
  solubility (in words): improved solubility
[2]; pH 2, aqueous buffer, pH 2.0, 1 Hour, replicates N=1, N=2, read-out: Assay (solubility by HPLC)
  solubility at 1 h: 23 µg/mL (≈ 84.2 µM)
[2]; pH 2, aqueous buffer, pH 2.0, 1 Hour, read-out: Mean Assay (solubility by HPLC)
  solubility at 1 h: 20 µg/mL (≈ 73.2 µM)
[2]; pH 2, aqueous buffer, pH 2.0, 2 Hour, replicates N=1, N=2, read-out: Assay (solubility by HPLC)
  solubility at 2 h: 20 µg/mL (≈ 73.2 µM)
[2]; pH 2, aqueous buffer, pH 2.0, 2 Hour, read-out: Mean Assay (solubility by HPLC)
  solubility at 2 h: 21 µg/mL (≈ 76.9 µM)
[2]; pH 4.5, aqueous buffer, pH 4.5, 1 Hour, replicates N=1, N=2, read-out: Assay (solubility by HPLC)
  solubility at 1 h: 45 µg/mL (≈ 165 µM)
[2]; pH 4.5, aqueous buffer, pH 4.5, 1 Hour, read-out: Mean Assay (solubility by HPLC)
  solubility at 1 h: 45 µg/mL (≈ 165 µM)
[2]; pH 4.5, aqueous buffer, pH 4.5, 2 Hour, replicates N=1, N=2, read-out: Assay (solubility by HPLC)
  solubility at 2 h: 52 µg/mL (≈ 190 µM)
[2]; pH 4.5, aqueous buffer, pH 4.5, 2 Hour, read-out: Mean Assay (solubility by HPLC)
  solubility at 2 h: 51 µg/mL (≈ 187 µM)
[2]; pH 5.5, aqueous buffer, pH 5.5, 1 Hour, replicates N=1, N=2, read-out: Assay (solubility by HPLC)
  solubility at 1 h: 258 µg/mL (≈ 944 µM)
[2]; pH 5.5, aqueous buffer, pH 5.5, 1 Hour, read-out: Mean Assay (solubility by HPLC)
  solubility at 1 h: 248 µg/mL (≈ 908 µM)
[2]; pH 5.5, aqueous buffer, pH 5.5, 2 Hour, replicates N=1, N=2, read-out: Assay (solubility by HPLC)
  solubility at 2 h: 283 µg/mL (≈ 1040 µM)
[2]; pH 5.5, aqueous buffer, pH 5.5, 2 Hour, read-out: Mean Assay (solubility by HPLC)
  solubility at 2 h: 275 µg/mL (≈ 1010 µM)
[2]; pH 6.8, aqueous buffer, pH 6.8, 1 Hour, replicates N=1, N=2, read-out: Assay (solubility by HPLC)
  solubility at 1 h: 920 µg/mL (≈ 3370 µM)
[2]; pH 6.8, aqueous buffer, pH 6.8, 1 Hour, read-out: Mean Assay (solubility by HPLC)
  solubility at 1 h: 1280 µg/mL (≈ 4690 µM)
[2]; pH 6.8, aqueous buffer, pH 6.8, 2 Hour, replicates N=1, N=2, read-out: Assay (solubility by HPLC)
  solubility at 2 h: 905 µg/mL (≈ 3310 µM)
[2]; pH 6.8, aqueous buffer, pH 6.8, 2 Hour, read-out: Mean Assay (solubility by HPLC)
  solubility at 2 h: 1030 µg/mL (≈ 3780 µM)
[2]; pH 7.4, aqueous buffer, pH 7.4, 1 Hour, replicates N=1, N=2, read-out: Assay (solubility by HPLC)
  solubility at 1 h: 473 µg/mL (≈ 1730 µM)
[2]; pH 7.4, aqueous buffer, pH 7.4, 1 Hour, read-out: Mean Assay (solubility by HPLC)
  solubility at 1 h: 463 µg/mL (≈ 1690 µM)
[2]; pH 7.4, aqueous buffer, pH 7.4, 2 Hour, replicates N=1, N=2, read-out: Assay (solubility by HPLC)
  solubility at 2 h: 489 µg/mL (≈ 1790 µM)
[2]; pH 7.4, aqueous buffer, pH 7.4, 2 Hour, read-out: Mean Assay (solubility by HPLC)
  solubility at 2 h: 501 µg/mL (≈ 1830 µM)
[2]; pH 2.0, 1 Hour, replicates N=1, N=2
  Assay (solubility by HPLC): 18 µg/mL
[2]; pH 2.0, 2 Hour, replicates N=1, N=2
  Assay (solubility by HPLC): 23 µg/mL
[2]; pH 4.5, 2 Hour, replicates N=1, N=2
  Assay (solubility by HPLC): 51 µg/mL
[2]; pH 5.5, 1 Hour, replicates N=1, N=2
  Assay (solubility by HPLC): 237 µg/mL
[2]; pH 5.5, 2 Hour, replicates N=1, N=2
  Assay (solubility by HPLC): 267 µg/mL
[2]; pH 6.8, 1 Hour, replicates N=1, N=2
  Assay (solubility by HPLC): 1644 µg/mL
[2]; pH 6.8, 2 Hour, replicates N=1, N=2
  Assay (solubility by HPLC): 1163 µg/mL
[2]; pH 7.4, 1 Hour, replicates N=1, N=2
  Assay (solubility by HPLC): 452 µg/mL
[2]; pH 7.4, 2 Hour, replicates N=1, N=2
  Assay (solubility by HPLC): 513 µg/mL

Source: patent US20260124146A1, “MODIFIED RELEASE TOLCAPONE FORMULATIONS” (Corino Therapeutics, Inc., priority 2022, published 2026)
